Consider 8 compounds from patent US12324839B2, “Testosterone-inducing peptide compounds and associated combinations” (THE ROYAL INSTITUTION FOR THE ADVANCEMENT OF …, priority 2018, dated 2025).

In data set [1] the test system is plasma testosterone level in Brown-Norway rats. The experiment in a line: Subcutaneous osmotic pump infusion of tetrapeptides, plasma testosterone (Example I). The data set is classed as in vivo. How it is done: Osmotic pumps. Model 2006 osmotic pumps, infusing 0.15 μL/hr, were purchased from Alzet (Cupertino, CA). The peptide concentration loaded into the pumps was adjusted to deliver the doses indicated in each figure. The pump infusion rates varied by production lot and were adjusted accordingly. Pumps were loaded 24 hrs prior to surgical implantation under sterile conditions and were kept at 37° C. in PBS.
(§1) Animal handling, blood collections, surgical procedures, and oral administration of peptides. Brown-Norway rats aged 22-28, 36-42, or 50-56 days-old were purchased from Charles River Laboratories (Senneville, Quebec) and aged until needed. Rats were kept on a 12 L/12 D day cycle with lights on at 7 AM and access to food and water ad libitum.
(§2) For all experiments, plasma samples were obtained via percutaneous jugular puncture and collected in EDTA KE/1.3 tubes (Sarstedt, Numbrecht, Germany, Cat #5072511). Blood collection time points are indicated in each figure legend. Samples were centrifuged at 1 300 RCF for 10 min, and the plasma was stored in 2 mL Wheaton glass vials (Fisher Scientific, Hampton, NH, Cat #03 337 21A) and kept at −20° C. until needed.
Brown-Norway rats aged ˜29 day-old were implanted with osmotic infusion pumps in the interscapular region under general anesthesia with isoflurane following antisepsis using iodine. The surgical wound was closed with two to three staples that were removed a week after the surgery. Subcutaneous carprofen (Zoetis, Parsippany, NJ) was given before the surgical procedure and in the following two days for pain management.
(§3) Plasma steroid measurements. Testosterone levels were measured using Cayman (Ann Arbor, MI) EIA kit Cat #582701, and corticosterone levels were measured using Cayman EIA kit Cat #501320. All samples were measured in duplicate according to the manufacturer's instructions. Samples were diluted until the average control levels fitted the middle of the standard curve. The number of animals used for each experiment is noted in the corresponding figure legend.

The nature of data set [2]: Peptide stability in plasma. Type of data set: in vitro ADME, Brown-Norway rats. Conditions: for half-life in plasma (rank order): 4 μM peptide (KVSQ 12.5 μM) in 100 μL rat plasma, 37° C., 1-120 minutes; for stability / degradation in plasma: in vitro rat plasma incubation. How it is done: Peptide stability in plasma, oral pharmacokinetics, and quantification. For peptide stability experiments, plasma from Brown-Norway rats age 90-140 days was collected and stored at −20° C. until further use. The plasma was thawed, spun at 12 000 RPM for 10 min, and kept at 4° C. 4 μM of the various peptides were incubated with 100 μL of plasma that was warmed at 37° C. for 10 min before use. After 1, 15, 30, 60, 90 or 120 minutes, the plasma/peptide samples were crashed with 300 μL of 100% methanol, spun at 14 000 RPM for 10 min, and the supernatant collected. The methanol in the supernatant was evaporated and the samples were re-extracted. The final pellet was solubilized in 5 μL methanol followed by the addition of 100 μL of sterile double distilled water. The extracted samples were transferred to plastic tubes and placed in the autoloader of the mass spectrometer.
(§4) The analytical instrumentation consisted of a Thermo-Scientific ISQ Quantiva Triple Quadrupole Mass Spectrometer (QQQ), incorporating a heated electrospray ionization (HESI) source, and a Thermo-Scientific UltiMate™ 3000 UHPLC system (including, UltiMate™ 3000 RS autosampler). Analytical conditions were developed using a reference standard in a solution containing 5 μM of the corresponding peptide. The chromatography was resolved by isocratic elution of a binary solvent system incorporating (A) 0.1% Formic Acid (aq) and (B) ACN+0.1% FA and using an Agilent Eclipse Plus™ C18 analytical column (100 mm×2.1 mm ID, 1.8 μm particle). A 5 μL injection volume and solvent flow rate of 150 μL/min were used. The MS/MS acquisition time was 7 min and total run time was 8.3 min/injection. The triple Quadrupole MS/MS instrumentation conditions were as follows: the HESI source voltage was 3200 V, the sheath gas […], auxiliary gas 20 L/min, sweep gas 2.0 L/min, the ion transfer temperature was 350° C., the vaporizer temperature was 350° C., the CID gas was 1.5 (mTorr) and the dwell time was 100 msec. The Q1 Resolution (FWHM) was 0.4 (unitless) and the Q3 resolution (FWHM) was 0.7 (unitless). The instrument ran in a selected reaction monitoring (SRM), positive ion detection mode at various collision energies (CE) for the following mass transitions: • Ac-RITQdS-NH2: p84 (m/z 645→m/z 295, m/z 396) • RdVTQ: p72 (m/z 503→m/z 211). • Ac-RdITQ-NH2: p87 (m/z 558→m/z 391, m/z 267) • RVTQ: p64 (m/z 503→m/z 211; m/z 503→m/z 357 and m/z 503→m/z 256) • KVSQ: p95 (m/z 461→m/z 129) and (m/z 461→m/z 234)

Data set [3] concerns plasma testosterone level in Brown-Norway rats. The experiment in a line: Oral administration (gavage) of peptides, plasma testosterone. The data set is classed as in vivo. Conditions: for average testosterone levels across doses: gavage ~10, 220, or 420 μg/kg, after two hrs, rats aged 82-131 days; for average testosterone levels: gavage ~10 μg/kg; for testosterone levels: oral gavage ~580 μg/kg. How it is done:
(§5) Peptides. Peptides were obtained from CanPeptide (Montreal, Quebec) with >95% purity. All peptides were dissolved in molecular grade, sterile double distilled water to obtain a 1 mM stock solution and stored at −20° C. Peptides used for oral screenings were prepared from 1 mM peptide stock and diluted in sterile tap water in a total volume of 1 mL. Peptides used for pharmacokinetic experiments were diluted at 10 mg/ml using sterile tap water. Some of the peptides were chemically modified after synthesis. The following table summarizes the peptides that have been tested:
as §1, §2
(§6) For all oral experiments, administration via gavage began between 8:30-8:50 am with a 3-minute delay between each rat. Animals used for pharmacokinetic studies were fasted for 4 hrs before starting gavage at 1 pm with a 3-minute delay between each rat.
as §3

Data set [4] in a line: Oral pharmacokinetics after single oral dose. The data set is classed as in vivo, Brown-Norway rats. As to conditions: single oral dose of 10 mg peptide, gavage. The method, then: as §6
For oral pharmacokinetic experiments, jugular blood samples were collected following a single oral dose of 10 mg peptide in 1 ml of vehicle after 5, 15, 30, 45, 60, 90, and 120 minutes. Protein inhibitor cocktail (ROCHE, cOmplete protein inhibitors, Cat #11697498001), which was added into the EDTA collection tubes, was used for KVSQ and RVTQ peptides. Plasma was immediately extracted, and 100 μL of plasma were crashed with 300 μL of 100% methanol, spun at 14 000 RPM for 10 min, and the supernatant harvested. Re-extraction of the precipitant and solubilization of the pellet were as described above.
as §4, with “The instrument ran in a selected reaction monitoring (SRM), positive ion detection mode at various collision energies (CE) for the following mass transitions: • Ac-RITQdS-NH2: p84 (m/z 645→m/z 295, m/z 396) • RdVTQ: p72 (m/z 503→m/z 211). • Ac-RdITQ-NH2: p87 (m/z 558→m/z 391, m/z 267) • RVTQ: p64 (m/z 503→m/z 211; m/z 503→m/z 357 and m/z 503→m/z 256) • KVSQ: p95 (m/z 461→m/z 129) and (m/z 461→m/z 234)” left out

For data set [5], the system named is plasma corticosterone level in Brown-Norway rats. The experiment in a line: Oral administration (gavage) of peptides, plasma corticosterone. As to conditions: gavage with increasing concentrations, 2 hrs. The data set is classed as in vivo. The method, then:
as §5, §1
For all experiments, plasma samples were obtained via percutaneous jugular puncture and collected in EDTA KE/1.3 tubes (Sarstedt, Numbrecht, Germany, Cat #5072511). […]
Plasma steroid measurements. Testosterone levels were measured using Cayman (Ann Arbor, MI) EIA kit Cat #582701, and corticosterone levels were measured using Cayman EIA kit Cat #501320. All samples were measured in duplicate according to the manufacturer's instructions. […]

Setting [6] is: samples at age 54 days (first round), ~370 ng/kg/day.

Square brackets hold non-standard residues; d marks the D form. Peptide text beside a SMILES is read from it.

With KITQ, the circulating testosterone levels entry in data set [1] (setting [6]) was “significant increase”.

In the case of `CC[C@@H](C)[C@@H](NC(=O)[C@H](CCCNC(=N)N)NC(C)=O)C(=O)N[C@H](C(=O)N[C@@H](CCC(N)=O)C(N)=O)[C@@H](C)O` [Ac-RdITQ-NH2] (Ac-R[dI]TQ-NH2), the “half-life in plasma (rank order)” value in data set [2] is given as “Ac-RITQdS-NH2>RdVTQ>Ac-RdITQ-NH2>RITQ>RVTQ>KVSQ”. In addition, the “average testosterone levels across doses” value in data set [3] is “increased average testosterone levels”. The average testosterone levels entry in data set [3] (third screening, 2 hrs) is recorded as “increased, although not significantly”.

As for Ac-KdITQ-NH2, in data set [3] (third screening, 2 hrs), the average testosterone levels entry is “increased, although not significantly”.

With `CC[C@H](C)[C@H](NC(=O)[C@H](CCCNC(=N)N)NC(C)=O)C(=O)N[C@H](C(=O)N[C@@H](CCC(N)=O)C(=O)N[C@H](CO)C(N)=O)[C@@H](C)O` [Ac-RITQdS-NH2] (Ac-RITQ[dS]-NH2), in data set [4] (Brown-Norway, rat, plasma, read-out: time to peak concentration in blood (converted)), the Tmax was ~15 min. Besides, in data set [2], the “half-life in plasma (rank order)” value is given as “Ac-RITQdS-NH2>RdVTQ>Ac-RdITQ-NH2>RITQ>RVTQ>KVSQ” and the “stability / degradation in plasma” value is given as “most stable peptide”. In addition, in data set [3], the “average testosterone levels across doses” value is “increased average testosterone levels”. The average testosterone levels entry in data set [3] (third screening, 2 hrs) is on record as “increased, although not significantly”.

For the compound `CC(C)[C@H](NC(=O)[C@@H](N)CCCCN)C(=O)N[C@@H](CO)C(=O)N[C@@H](CCC(N)=O)C(=O)O` [KVSQ] (H-KVSQ-OH), in data set [4], the “circulating peptide levels (detection)” value was “not detected”. Also, in data set [2], the “half-life in plasma (rank order)” value was “Ac-RITQdS-NH2>RdVTQ>Ac-RdITQ-NH2>RITQ>RVTQ>KVSQ” and the “stability / degradation in plasma” value is “rapid degradation”. In addition, in data set [3], the “average testosterone levels across doses” value is given as “increased average testosterone levels”. Besides, the average testosterone levels result in data set [3] (third screening, 2 hrs) is “increased, although not significantly”.

In the case of RVTQdS-NH2, the figures for the testosterone levels entry in data set [3] (2 hr post-treatment) and in data set [3] (3 hrs sampling time) were “best significant increase in testosterone levels” and “significantly increased testosterone levels”, respectively.

Take `CC[C@H](C)[C@H](NC(=O)[C@@H](N)CCCNC(=N)N)C(=O)N[C@H](C(=O)N[C@@H](CCC(N)=O)C(=O)O)[C@@H](C)O` [RITQ] (H-RITQ-OH): the “corticosterone levels, dose-response” value in data set [5] is on record as “no corresponding significant changes”. Besides, the circulating testosterone levels entry in data set [1] (setting [6]) was “non-significant increase”; in data set [1] (samples at age 65 days (second round), ~330 ng/kg/day), “significant increase”. Further, the “half-life in plasma (rank order)” value in data set [2] was “Ac-RITQdS-NH2>RdVTQ>Ac-RdITQ-NH2>RITQ>RVTQ>KVSQ”. The “stability / degradation in plasma” value in data set [2] was “rapid time-dependent degradation”. The “testosterone levels, dose-response” value is given as “significant increase” in data set [3] (gavage 10 μg/kg, 2 hrs); “non-significant decrease” in data set [3] (gavage ~220 μg/kg, 2 hrs); “significant increase” in data set [3] (gavage ~520 μg/kg, 2 hrs). In addition, the average testosterone levels result in data set [3] (third screening, 2 hrs) is listed as “increased, although not significantly”. The “steroid (testosterone) levels” value in data set [3] (third screening, gavage ~220 μg/kg, 2 hrs) is “decrease in steroid levels”.

For the compound `CC(C)[C@@H](NC(=O)[C@@H](N)CCCNC(=N)N)C(=O)N[C@H](C(=O)N[C@@H](CCC(N)=O)C(=O)O)[C@@H](C)O` [RdVTQ] (H-R[dV]TQ-OH), the “corticosterone levels, dose-response” value in data set [5] is “no corresponding significant changes”. Also, the “half-life in plasma (rank order)” value in data set [2] is given as “Ac-RITQdS-NH2>RdVTQ>Ac-RdITQ-NH2>RITQ>RVTQ>KVSQ”. The “testosterone levels, dose-response” value in data set [3] (gavage 10 μg/kg, 2 hrs) is “trend to increase”; in data set [3] (gavage 800 μg/kg, 2 hrs), “significant increases”; in data set [3] (gavage ~400 μg/kg, 2 hrs) it was “significant increases”. Further, the “average testosterone levels across doses” value in data set [3] is given as “increased average testosterone levels”. In data set [3] (gavage, all doses tested, 2 hrs), the “average testosterone levels, dose-response” value is “increased the average testosterone levels at all doses tested”. Moreover, the average testosterone levels result in data set [3] (third screening, 2 hrs) is on record as “increased, although not significantly”.
